In ChEMBL document CHEMBL1158024, “Terpenoids of Syzygium formosanum” (J Nat Prod, 1999):

Assay: Inhibition of moloney murine leukemia virus reverse transcriptase

Compound: C=C(C)[C@@H]1CC[C@]2(C(=O)O)CC[C@]3(C)[C@H](CC[C@@H]4[C@@]5(C)CC[C@H](O)C(C)(C)[C@@H]5CC[C@]43C)[C@@H]12 [BETULINIC ACID]
- EC50: 1400 nM
